Experimental data: patent US20260103474A1, “NOVEL COMPOUNDS FOR THE DIAGNOSIS OF TDP-43 PROTEINOPATHIES” (AC IMMUNE SA, priority 2022, published 2026)

Tests used:
[1] = tested on: AD brain-derived Tau PHF aggregates; assay: Micro-radiobinding direct binding on AD brain-derived Tau PHF; parameters: species or system human; settings: tritiated compound 0.6 to 200 nM
Method: The enrichment procedure was modified from Jicha et al, 1997 and Rostagno and Ghiso, 2009. Briefly, around 15 g of the AD human brain were thawed on ice and homogenized with homogenization buffer (3 ml per gram of tissue) (0.75 M NaCl in RAB buffer (100 mM 2-(N-morpholino)ethanesulfonic acid (MES), 1 mM EGTA, 0.5 mM MgSO4, 2 mM DTT, pH 6.8) supplemented with protease inhibitors (Complete; Roche 693124001)) in a glass Dounce homogenizer. […]
PD brain-derived a-synuclein aggregates and AD brain-derived Tau PHF aggregates were spotted onto microarray slides. […] Quantification of signal was performed by using the image analysis software Beamage (ai4R). Non-specific signal was determined with an excess of non-radiolabelled compound (2 μM) and specific binding was calculated by subtracting the non-specific signal from the total signal. Competition was calculated as percentage, where 0% was defined as the specific binding in the presence of vehicle and 100% as the values obtained in the presence of excess of the non-radiolabelled a-syn reference compound. Ki values were calculated in GraphPad Prism7 by applying a nonlinear regression curve fit using a one site, specific binding model. […]

[2] = target: TDP-43 aggregates (Homo sapiens, UniProt Q13148); assay: Micro-autoradiography staining in brain sections from patients with FTD; format: binding; parameters: from tissue; host or cells: frozen post-mortem human brain sections (FTLD-TDP type A and type B; non-demented controls in the classical autoradiography); settings: 120 nM
Method: All tissues were collected from donors for or from whom a written informed consent for a brain autopsy and the use of the material and clinical information for research purposes had been obtained by the respective brain banks. All samples were anonymized and coded. Frozen brain tissue blocks with confirmed TDP-43 pathology upon autopsy were processed using a cryotome to generate sections of 10 μm in thickness and mounted on glass slides. Sections were kept at −80° C. until use.
Brain sections were immunostained using a commercially available antibody, specific for phosphorylated serine at amino acid 409/410 (anti-pTDP-43 pS409/410, Biolegend, 829901). Sections were fixed for 15 minutes at 4° C. with 4% formaldehyde (Sigma, 252549) and washed three times for height minutes with 1×PBS (Dulbecco's phosphate buffered saline, Sigma D1408) at room temperature. Next, sections were saturated and permeabilized in blocking buffer (PBS, 10% normal goat serum (NGS), 0.25% Triton X-100) for one hour at room temperature and incubated overnight at 4° C. with primary antibody against pTDP-43 (diluted at 1/500 in PBS, 5% NGS, 0.25% Triton X-100). The following day, sections were washed three times for height minutes with 1×PBS before incubation with a secondary, AlexaFluor633-labeled goat-anti-rat antibody (Invitrogen, A-21094, diluted at 1/500 in PBS) for 45 minutes at room temperature. Following incubation with […] antibodies the sections were washed three times in PBS before being processed further.
For micro-autoradiography, tritiated test compound ([^3H]-Compound 1, [^3H]-Compound 9 or [^3H]-Compound 17 respectively) was incubated on the sections at 120 nM in 50 mM Tris buffer pH 7.4 for 45 minutes at room temperature. Sections were then washed as follows: once in ice-cold 50 mM Tris-HCl pH 7.4 buffer for one minute, twice in ice-cold 70% ethanol for one minute, once in ice-cold 50 mM Tris-HCl pH 7.4 buffer for one minute and finally rinsed briefly in ice-cold distilled water. Sections were subsequently dried for one hour under a stream of air and then exposed to Ilford Nuclear Emulsion Type K5 (Agar Scientific, AGP9281) for ten days at 4° C. in a light-proof slide storage box. The sections were developed by immersing them successively in the following solutions: 1.) Ilford Phenisol Developer (1:5 dilution in H2O, Agar Scientific, AGP9106) for four minutes, 2.) Ilfostop solution (1:20 dilution in H2O, Agar Scientific, AGP9104) for two minutes, 3.) Ilford Hypam Fixer (1:5 dilution in H2O, Agar Scientific, AGP9183) for four minutes and finally rinsed with H2O for 10 minutes.
For image acquisition, sections were mounted using ProLong Gold Antifade reagent (Invitrogen P36930) and imaged on a Panoramic250 Slide Scanner (3DHistech) with a 40× objective capturing brightfield and fluorescent images separately or on a Panoramic Scan II (3DHistech) with a 20× objective. The Visiopharm image analysis software suite was used to align the fluorescent image with the brightfield image.

Sequence of TDP-43 aggregates (Q13148 whole entry): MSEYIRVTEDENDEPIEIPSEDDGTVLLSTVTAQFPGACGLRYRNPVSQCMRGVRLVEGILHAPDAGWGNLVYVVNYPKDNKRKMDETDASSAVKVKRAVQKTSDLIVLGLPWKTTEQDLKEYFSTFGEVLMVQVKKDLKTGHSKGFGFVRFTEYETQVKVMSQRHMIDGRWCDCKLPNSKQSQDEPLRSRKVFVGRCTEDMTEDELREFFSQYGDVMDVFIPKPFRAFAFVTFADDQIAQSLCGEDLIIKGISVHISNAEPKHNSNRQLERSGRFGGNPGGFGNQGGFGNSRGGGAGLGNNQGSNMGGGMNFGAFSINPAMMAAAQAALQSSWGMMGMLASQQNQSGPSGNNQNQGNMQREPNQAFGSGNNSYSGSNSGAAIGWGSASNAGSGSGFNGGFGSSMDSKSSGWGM

| Direct binding in AD brain-derived Tau PHF aggregates [1] | Micro-autoradiography silver grain signal versus pTDP-43 immunostaining ([2]; FTLD-TDP type A brain sections) | Micro-autoradiography silver grain signal versus pTDP-43 immunostaining ([2]; FTLD-TDP type B brain sections) | SMILES |
| --- | --- | --- | --- |
| No significant binding | colocalization with pTDP-43 aggregates | same colocalization was observed | [3H]c1cncc(N2CCc3nc(-c4cc([3H])c(N5CC[C@@H](F)C5)nc4F)sc3C2=O)c1 [[^3H]-Compound 1, tritiated 2-[2-fluoro-6-[(3R)-3-fluoropyrrolidin-1-yl]-3-pyridyl]-5-(3-pyridyl)-6,7-dihydrothiazolo[5,4-c]pyridin-4-one] |
| No significant binding | colocalization with pTDP-43 aggregates | same colocalization was observed | [3H]C([3H])(O)C1CCN(c2ccc(-c3nc4c(s3)C(=O)N(c3cccnc3)CC4)c(F)n2)CC1 [[^3H]-Compound 17, 2-(2-fluoro-6-(4-(hydroxymethyl-t2)piperidin-1-yl)pyridin-3-yl)-5-(pyridin-3-yl)-6,7-dihydrothiazolo[5,4-c]pyridin-4(5H)-one] |
